Data taken from US10245328B2, “Gadolinium complex comprising DO3A-tranexamic acid conjugate” (KYUNGPOOK NATIONAL UNIVERSITY INDUSTRY-ACADEMIC COOPERATION …, priority 2014, dated 2019).

Experiments:
[1] = Relaxation rate measurement (R1, R2) in PBS and in PBS solution of HSA; assay type: physicochemical; conditions: 293K; for R1 / R2: PBS pH 7.4, 64 MHz (1.5 T); for R1 in 0.67 mM HSA / R2 in 0.67 mM HSA: PBS solution of 0.67 mM HSA, 64 MHz
Description: T1 measurement is carried out using an inversion recovery method at 1.5 T (64 MHz) in a variable inverse time (TI). MR images are obtained for 35 different TI values in a range of 50 to 1750 ms. A T1 relaxation time is obtained from a nonlinear least-squares fit of a signal strength measured at each TI value. For a T2 CPMG (Carr-Purcell-Meiboon-Gill) pulse sequence measurement, the measurement is adapted to a multi spin-echo measurement. 34 images are obtained at 34 different echo time (TE) values in a range of 10 to 1900 ms. The T2 relaxation time is obtained from a nonlinear least-squares fit of mean pixel values for multi spin-echo measurement at each echo time. Next, a relaxation rate (R1 and R2) is calculated as an inverse of a relaxation time per mM. The determined relaxation time (T1 and T2) and relaxation rate (R1 and R2) are subjected to an image processing to get a relaxation time map and relaxation rate respectively.
For comparison between the complexes 2a-e, there is no noticeable difference in R1's. The measurement is carried out for two different media, that is, PBS (pH=7.4) and PBS solution of HAS in order to indicate which blood-pool effect is expressed by the complexes 2a-e.

[2] = Isothermal titration calorimeter (ITC), binding of Gd^3+ to ligand; conditions: 25° C., pH = 4.5, read-out: Kd (dissociation constant)
Description: In order to quantify binding isotherms of paramagnetic metal ions Gd^3+ with a ligand solution, an ITC test is executed at a VP-ITC isothermal titration microcalorimeter (Microcal, USA). Data collection, analysis and plotting are executed with help of software package Origin, version 8.0 from Microcal. A sample cell has a 1.43 mL volume. The cell is filled with a water-soluble buffer solution of the above compound 1a-e ligand (0.2 mM). A water-soluble buffer solution of Gd^3+ (1.0 mM) is input into a 300 μL continuous agitated (300 rpm) syringe and 10 μL aliquots thereof is injected into the cell. At a 3-mins interval, the cell is delivered over 20 s. Data points are collected on a 2 s basis. The measurement is executed at 25° C. All titrations are executed three times to secure data consistency and solution stability. These titration isotherms are integrated to find out an enthalpy change at each injection. In order to fit well with two mathematically different sets of site models, the titration isotherms are analyzed. Via a calorie measurement, parameters including a binding constant (Ka), a change in enthalpy (ΔH), a stoichiometry of binding (N) are calculated. Next, a free energy (ΔG) and an entropy change (ΔS) are calculated using a following complexation equation: Mn++nL↔MLn:ΔG=−RT·InKa=ΔH-TΔS,
where, R indicates a universal gas constant; T is Kelvin temperature.

[3] = Stability against hydrolysis in H2O (HPLC, 197 nm); assay type: physicochemical; conditions: for HPLC peak 2.38 min, 2b (trans) / HPLC peak 2.88 min, 2b (cis) / HPLC peak 3.16 min / HPLC peak 3.84 min / HPLC peak 7.66 min / HPLC peak 24.42 min / HPLC peak 28.12 min / HPLC peak 29.92 min / HPLC peak 34.46 min, Acid / HPLC peak 49.58 min: 2b in water; for HPLC peak 6.54 min, 2d / HPLC peak 7.79 min / HPLC peak 8.86 min / HPLC peak 33.15 min / HPLC peak 40.33 min / HPLC peak 40.81 min / HPLC peak 43.77 min / HPLC peak 44.51 min / HPLC peak 46.56 min: 2d in water; for HPLC peak 2.32 min / HPLC peak 4.98 min / HPLC peak 17.21 min, 2e / HPLC peak 23.70 min, 2e isomer / HPLC peak 40.63 min / HPLC peak 42.14 min / HPLC peak 43.00 min / HPLC peak 44.95 min / HPLC peak 45.93 min / HPLC peak 46.64 min / HPLC peak 48.46 min / HPLC peak 49.36 min: 2e in water
Description: The contrast agents of the present series 100 mg are dissolved in distilled water 10 mL and is maintained as they are for 72 hours at 50° C. Using HPLC, O.D. (Optical Density) values are read at 197 nm and the stability of the agents is determined. The substances at each retention time are examined using LC Mass Spectroscopy for accurate identification of decomposed products.

ICR mice = assay: In vivo MR experiment, T1-weighted images after tail vein injection; conditions: for signal enhancement / signal strength at the liver / liver-specificity / class of contrast agent: 0.1 mmol Gd/kg i.v.; for signal enhancement / signal strength at the liver: 1.5 T, initial 1 hour; for liver-specificity / class of contrast agent: in vivo MR images of mice
Description: The in vivo experiment is executed with compliance to a regulation of Animal Research Committee of KNU. 29-31 g weight 6-weeks male ICR mice are used. […] The measurement is carried out before and after the injection of the complexes 2a-e through the tail vein. […] After the mice wake from the anesthesia after each measurement, the mice were placed in a cage capable of free access to feed and food. For this measurement, the animals are held at about 37° C. using a warm water blanket. MR images are taken using a 1.5 T MR unit (GE Healthcare, Milwaukee, Wis.) with a manual RF coil for a small animal. The coil may be of a receiver type having a 50 mm inner diameter. […] MR images are collected for 24 h after the injection. Anatomical positions having an improved contrast are set for a liver, a bile duct, and a kidney on (post contrast) MR images. For quantitative measurements, a signal intensity in a region of interest (ROI) is measured using Advantage Window software (GE medical, U.S.). The CNR is calculated using a following equation (1): […] SNR is a […].

## O=C([O-])CN1CCN(CC(=O)[O-])CCN([C@H](CO)[C@H](O)CO)CCN(CC(=O)[O-])CC1.[Gd+3] (racemic) [Gadovist, Gd-BT-DO3A, reference compound]
[1]
  R1: 4.38 ± 0.15 mM⁻¹ s⁻¹
  R2: 4.27 ± 0.30 mM⁻¹ s⁻¹
  R1 in 0.67 mM HSA: 4.81 ± 0.17 mM⁻¹ s⁻¹
  R2 in 0.67 mM HSA: 5.54 ± 0.24 mM⁻¹ s⁻¹

## CCOC(=O)C1CCC(CNC(=O)CN2CCN(CC(=O)O)CCN(CC(=O)O)CCN(CC(=O)O)CC2)CC1 (stereo not shown) [1a]
[2]
  Kd: 19.3 µM

## O=C(O)CN1CCN(CC(=O)O)CCN(CC(=O)NCC2CCC(C(=O)O)CC2)CCN(CC(=O)O)CC1 (stereo not shown) [1b]
[2]
  Kd: 3.98 µM

## NCCNC(=O)C1CCC(CNC(=O)CN2CCN(CC(=O)O)CCN(CC(=O)O)CCN(CC(=O)O)CC2)CC1 (stereo not shown) [1c]
[2]
  Kd: 16.8 µM

## O=C([O-])CN1CCN(CC(=O)[O-])CCN(CC(=O)NCC2CCC(C(=O)O)CC2)CCN(CC(=O)[O-])CC1.[Gd+3] (stereo not shown) [2b]
[3]; 50° C./3 day
  HPLC peak 2.38 min, 2b (trans): 93.4%
  HPLC peak 2.88 min, 2b (cis): 2.87%
  HPLC peak 3.16 min: 0.33%
  HPLC peak 3.84 min: 0.38%
  HPLC peak 7.66 min: 0.06%
  HPLC peak 24.42 min: 0.19%
  HPLC peak 28.12 min: 0.64%
  HPLC peak 29.92 min: 0.10%
  HPLC peak 34.46 min, Acid: 0.03%
  HPLC peak 49.58 min: 0.21%
[3]; initial
  HPLC peak 2.38 min, 2b (trans): 92.80%
  HPLC peak 2.88 min, 2b (cis): 3.35%
  HPLC peak 3.16 min: 0.30%
  HPLC peak 3.84 min: 0.35%
  HPLC peak 7.66 min: 0.12%
  HPLC peak 24.42 min: 0.06%
  HPLC peak 28.12 min: 0.56%
  HPLC peak 29.92 min: 0.09%
  HPLC peak 34.46 min, Acid: 0.34%
  HPLC peak 49.58 min: 0.19%
ICR mice; ICR mice
  signal enhancement / signal strength at the liver: strong signal enhancement
ICR mice
  liver-specificity / class of contrast agent: strong specificity enhancement
[1]
  R1: 3.87 ± 0.11 mM⁻¹ s⁻¹
  R2: 3.98 ± 0.26 mM⁻¹ s⁻¹
  R1 in 0.67 mM HSA: 3.98 ± 0.14 mM⁻¹ s⁻¹
  R2 in 0.67 mM HSA: 5.43 ± 0.28 mM⁻¹ s⁻¹

## NCCNC(=O)C1CCC(CNC(=O)CN2CCN(CC(=O)[O-])CCN(CC(=O)[O-])CCN(CC(=O)[O-])CC2)CC1.[Gd+3] (stereo not shown) [2c]
[3]; 2c in water, 50° C./3 day
  HPLC peak 2.58%: 0.27%
  HPLC peak 7.61%: 0.14%
  HPLC peak 19.86%: 2.30%
  HPLC peak 2.31 min, 2b: 0.11%
  HPLC peak 9.10 min, 2c (trans): 93.11%
  HPLC peak 10.60 min, 2c (cis): 1.19%
  HPLC peak 40.68 min, 1c: 0.002%
  HPLC peak 45.53 min: 0.18%
  HPLC peak 49.81 min: 0.11%
[3]; 2c in water, initial
  HPLC peak 2.58%: 0.27%
  HPLC peak 7.61%: 0.14%
  HPLC peak 2.31 min, 2b: 0.06%
  HPLC peak 9.10 min, 2c (trans): 91.05%
  HPLC peak 10.60 min, 2c (cis): 1.35%
  HPLC peak 40.68 min, 1c: 1.65%
  HPLC peak 45.53 min: 0.16%
  HPLC peak 49.81 min: 0.09%
ICR mice; ICR mice
  signal enhancement / signal strength at the liver: strong signal enhancement
ICR mice
  liver-specificity / class of contrast agent: strong specificity enhancement
[1]
  R1: 3.68 ± 0.13 mM⁻¹ s⁻¹
  R2: 3.62 ± 0.26 mM⁻¹ s⁻¹
  R1 in 0.67 mM HSA: 3.74 ± 0.07 mM⁻¹ s⁻¹
  R2 in 0.67 mM HSA: 4.10 ± 0.07 mM⁻¹ s⁻¹

## NC1CCC(NC(=O)CN2CCN(CC(=O)[O-])CCN(CC(=O)[O-])CCN(CC(=O)[O-])CC2)CC1.[Gd+3] (stereo not shown) [2d]
[3]; 50° C./3 day
  HPLC peak 6.54 min, 2d: 90.10%
  HPLC peak 7.79 min: 0.36%
  HPLC peak 8.86 min: 0.30%
  HPLC peak 33.15 min: 1.12%
  HPLC peak 40.33 min: 0.007%
  HPLC peak 40.81 min: 0.14%
  HPLC peak 43.77 min: 0.25%
  HPLC peak 44.51 min: 0.22%
  HPLC peak 46.56 min: 0.18%
[3]; initial
  HPLC peak 6.54 min, 2d: 89.67%
  HPLC peak 7.79 min: 0.30%
  HPLC peak 8.86 min: 0.30%
  HPLC peak 33.15 min: 1.20%
  HPLC peak 40.33 min: 0.16%
  HPLC peak 40.81 min: 0.14%
  HPLC peak 43.77 min: 0.27%
  HPLC peak 44.51 min: 0.23%
  HPLC peak 46.56 min: 0.19%
ICR mice
  liver-specificity / class of contrast agent: ECF contrast agent
ICR mice; initially after 0.1 mmol Gd/kg i.v., ICR mice
  signal enhancement at the kidney and abdominal aorta: strong signal enhancement
[1]
  R1: 3.94 ± 0.13 mM⁻¹ s⁻¹
  R2: 3.68 ± 0.29 mM⁻¹ s⁻¹
  R1 in 0.67 mM HSA: 3.91 ± 0.09 mM⁻¹ s⁻¹
  R2 in 0.67 mM HSA: 4.07 ± 0.09 mM⁻¹ s⁻¹

## O=C([O-])CN1CCN(CC(=O)[O-])CCN(CC(=O)NCC2CCCCC2)CCN(CC(=O)[O-])CC1.[Gd+3] [2e]
[3]; 50° C./3 day
  HPLC peak 2.32 min: 0.04%
  HPLC peak 4.98 min: 0.07%
  HPLC peak 17.21 min, 2e: 94.66%
  HPLC peak 23.70 min, 2e isomer: 1.57%
  HPLC peak 40.63 min: 0.05%
  HPLC peak 42.14 min: 0.05%
  HPLC peak 43.00 min: 0.05%
  HPLC peak 44.95 min: 0.05%
  HPLC peak 45.93 min: 0.03%
  HPLC peak 46.64 min: 0.01%
  HPLC peak 48.46 min: 0.03%
  HPLC peak 49.36 min: 0.18%
[3]; initial
  HPLC peak 2.32 min: 0.04%
  HPLC peak 4.98 min: 0.09%
  HPLC peak 17.21 min, 2e: 94.88%
  HPLC peak 23.70 min, 2e isomer: 1.36%
  HPLC peak 40.63 min: 0.03%
  HPLC peak 42.14 min: 0.01%
  HPLC peak 43.00 min: 0.05%
  HPLC peak 44.95 min: 0.05%
  HPLC peak 45.93 min: 0.04%
  HPLC peak 46.64 min: 0.02%
  HPLC peak 48.46 min: 0.03%
  HPLC peak 49.36 min: 0.18%
[1]
  R1: 4.49 ± 0.18 mM⁻¹ s⁻¹
  R2: 4.52 ± 0.28 mM⁻¹ s⁻¹
  R1 in 0.67 mM HSA: 5.21 ± 0.23 mM⁻¹ s⁻¹
  R2 in 0.67 mM HSA: 6.22 ± 0.28 mM⁻¹ s⁻¹

## CNC[C@H](O)[C@@H](O)[C@H](O)[C@H](O)CO.O=C([O-])CN1CCN(CC(=O)[O-])CCN(CC(=O)O)CCN(CC(=O)[O-])CC1.[Gd+3] [Dotarem, Gd-DOTA, reference compound]
[1]
  R1: 3.59 ± 0.17 mM⁻¹ s⁻¹
  R2: 3.87 ± 0.20 mM⁻¹ s⁻¹
  R1 in 0.67 mM HSA: 4.05 ± 0.13 mM⁻¹ s⁻¹
  R2 in 0.67 mM HSA: 4.30 ± 0.25 mM⁻¹ s⁻¹
